Results reported in patent US6080791A, “Method of treating a viral condition by inhibiting membrane fusion” (priority 1992, dated 2000).
Where two headings read alike, the source gives them in different places.

Tests used:
[1] = target: hemagglutinin (BHA), fusion peptide exposure (Influenza A virus (A/X-31(H3N2)), UniProt P03438); assay type: biochemical, C22 / X31 influenza virus (H3N2)
[2] = test system: hemagglutinin-mediated hemolysis of human red blood cells; test: Hemolysis (HEM) assay; assay type: cell-based, C22 influenza virus; human red blood cells; conditions: for inhibition at 100 µM / IC50 / inhibition at 1000 µM / inhibition at 10 µM / inhibition at 1 µM: unidentified influenza virus, Erythrocyte; for inhibition at 1 µM: log conc -6 (M)
low pH BHA = test: SPA POST control (nonspecific quenching); parameters: species or system C22 / X31 influenza virus (H3N2)
Description: The compounds being screened by SPA are present during scintillation counting. Some of the chemicals, particularly those that are highly colored, quench the detection of radioactivity. A control ("POST") distinguishes whether apparent inhibition arises from inhibition of the conformational change or from nonspecific effects. The test compound is added to a sample of BHA that had previously been acidified and reneutralized. The mixture is then precipitated as usual. Since the BHA treated in this manner is known to be in the low pH conformation, a reduction in measurable cpm compared to controls with ligand omitted proves the compound interferes with the detection system.
^3 H-Leu BHA was diluted to 10,000 cpm (counts per minute) per 200 μl in MSSH buffer (10 mM HEPES, 10 mM MES, 10 mM succinate, 0.10 M NaCl, pH 7.0) containing 0.1% NP40. Protein was incubated with the specified concentration of trial compound for 25 minutes at RT. The same volume of solvent used to dissolve the compound was added to control samples and the final concentration of DMSO in all solutions was 0.67% v/v. A predetermined amount of 1N HAc was added to bring the reactions to the appropriate pH (usually pH 5.0). Following a 5 minute (unless specified otherwise) incubation at RT, reactions were reneutralized with 1N NaOH. For POST controls, compounds were added to the appropriate concentration after reneutralization. 200 μL aliquots of the protein solution were added to scintillation vials containing 100 μl protein A-SPA beads (Amersham), 5% fetal bovine serum (FBS), and antibody. Vials were incubated overnight at RT with constant shaking. Each reaction used 10 μl of fusion peptide antiserum diluted 1:10 with 50% glycerol. Cpm were detected in a Beckman LS3801 scintillation counter without addition of liquid scintillant.
Apparent inhibition due to nonspecific effects was quantitated from the POST controls with the equation:
observed cpm=true cpm*quench factor

hemoglobin = test: Hb control (quenching of OD570 of hemoglobin); parameters: species or system human
C22 virus in MDCK2 cells [3] = test system: C22 virus in MDCK2 cells
in vitro = conditions: dog, mdck
Description: The ELISA-based assay described below (EIA antiviral assay) was used to measure antiviral activity. Cell viability was measured in parallel to distinguish inhibition of viral replication from toxicity.
Infections of MDCK2 cells with virus, compounds, and DMSO were set up identically as for the EIA assay. Following the 15 hour incubation, test compounds were washed away with PBS. 50 μl of MDCK2 growth media and 25 μl 2 mg/ml 3-(4,5-dimethylthiazol-2-yl)-2,5-diphenyl tetrazolium bromide (Sigma) in PBS were added to each well. Plates were returned to 37° C., 5% CO2 for 4 hrs. Crystals were broken up by vigorous mixing following addition of 80 μl isopropanol/0.04 N HCl. After incubation for 30 mins at RT, OD570 was read on an ELISA reader. % Inhibition is the % reduction of OD570 in the wells infected with compound compared to otherwise identical samples with compound omitted.

C22 virus in MDCK2 cells [4] = test: microbe, parasite or virus in culture; conditions: unidentified influenza virus; for inhibition at 1 µM / inhibition at 10 µM / inhibition at 100 µM: MDCK2, 15 h, read-out: infectivity % inhibition
[5] = test system: influenza-mediated syncytia formation, CV-1 cells
[6] = Table 7, preliminary results, read-out: HEM, negative log of IC50 (preliminary results) (converted)
[7] = log conc -3 (M), read-out: hemolysis % ↓ OD
[8] = log conc -4 (M), read-out: hemolysis % ↓ OD
[9] = log conc -5 (M), read-out: hemolysis % ↓ OD
[10] = MDCK2, read-out: INF, negative log of IC50 (preliminary results) (converted)
[11] = 0.25 h, Table 6, 10^-3 = 1 mM, low pH 15 minutes, read-out: IC50 hemolysis
[12] = Table 7, read-out: HEM, negative log of IC50 (converted)
[13] = MDCK2, read-out: IC50 infectivity
[14] = MDCK2, read-out: INF, negative log of IC50 (converted)

Sequence of hemagglutinin (BHA), fusion peptide exposure (Influenza A virus (A/X-31(H3N2)), UniProt P03438) (P03438 whole entry, looked up, the tested form may be a part): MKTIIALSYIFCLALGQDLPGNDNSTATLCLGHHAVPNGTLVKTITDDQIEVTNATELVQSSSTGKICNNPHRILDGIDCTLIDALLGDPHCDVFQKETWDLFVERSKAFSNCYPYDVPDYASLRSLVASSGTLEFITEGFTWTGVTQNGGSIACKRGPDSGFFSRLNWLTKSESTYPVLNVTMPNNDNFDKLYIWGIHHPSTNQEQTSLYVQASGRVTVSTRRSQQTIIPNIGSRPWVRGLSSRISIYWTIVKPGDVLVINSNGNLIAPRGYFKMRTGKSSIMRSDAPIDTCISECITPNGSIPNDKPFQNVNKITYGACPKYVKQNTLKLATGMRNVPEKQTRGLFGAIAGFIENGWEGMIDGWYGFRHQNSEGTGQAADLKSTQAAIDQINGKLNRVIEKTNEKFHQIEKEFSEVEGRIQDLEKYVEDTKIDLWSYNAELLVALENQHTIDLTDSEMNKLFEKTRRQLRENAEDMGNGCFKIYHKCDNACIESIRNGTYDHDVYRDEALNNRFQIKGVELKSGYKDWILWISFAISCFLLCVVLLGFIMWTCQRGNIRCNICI

Compound	inhibition of hemolytic activity [2]	Hb control % ↓ OD (hemoglobin; log conc -3 (M)) [%]	cytotoxicity at 15 h, 1 µM (in vitro) [%]	cytotoxicity at 15 h, 10 µM (in vitro) [%]	cytotoxicity at 15 h, 100 µM (in vitro) [%]	inhibition at 1000 µM [2, 7] [%]	inhibition at 100 µM [2, 8] [%]	Hb control % ↓ OD (hemoglobin; log conc -4 (M)) [%]	inhibition at 1 µM (C22 virus in MDCK2 cells [4]) [%]	inhibition at 10 µM (C22 virus in MDCK2 cells [4]) [%]	inhibition at 100 µM (C22 virus in MDCK2 cells [4]) [%]	IC50 [2, 11] [µM]	IC50 [2, 12] [µM]	IC50 (C22 virus in MDCK2 cells [4]; [14]) [µM]	also measured
5,8-dihydro-5,8-methano-1,4-naphthalenediol [Compound 83]	inhibits HA-mediated hemolysis	16.5 ± 2.1	–	–	–	–	–	–	–	–	–	–	–	–	SPA activity [1]: significant activity; hemolysis % ↓ OD ([2]; log conc -3 (M), 1000 µM): 67.0 ± 15.1%; hemolysis % ↓ OD ([2]; log conc -4 (M), 100 µM): 17.9 ± 20.0%; hemolysis % ↓ OD ([2]; log conc -5 (M), 10 µM): 11.3 ± 10.3%; % inhibition, POST (Table 1) (low pH BHA; 1 mM, POST control): 2.1%; infectivity % inhibition (C22 virus in MDCK2 cells [3]; log conc -3 (M)): 51.1 ± 28.3%; infectivity % inhibition (C22 virus in MDCK2 cells [3]; log conc -4 (M)): 33.1 ± 20.2%; infectivity % inhibition (C22 virus in MDCK2 cells [3]; log conc -5 (M)): 8.7 ± 6.7%; infectivity % inhibition (C22 virus in MDCK2 cells [3]; log conc -6 (M)): 12.3 ± 2.5%
Oc1ccc(O)c2c1C1C=CC2C1 [Compound 83A, 5,8-dihydro-5,8-methano-1,4-naphthalenediol]	–	–	–	–	–	–	–	–	–	–	–	–	–	–	SPA activity [1]: significantly higher activity; % inhibition, POST control (low pH BHA; log conc -3 (M)): 0.5 ± 1.1%; % inhibition, POST control (low pH BHA; log conc -4 (M)): -0.9 ± 1.5%; % inhibition, POST control (low pH BHA; log conc -5 (M)): -0.5%; % inhibition, POST control (low pH BHA; log conc -6 (M)): 10.8%
O=C(O)C1C=CCC2C(=O)C=CC(=O)C12 (stereo not drawn) [Compound 91, 5,8-dioxo-1,4,4A,5,8,8A-hexahydro-1-naphthalene carboxylic acid]	apparently inhibited hemolytic activity	29.6 ± 2.5	-0.06 ± 5.1	-2 ± 9.4	-4.3 ± 7	91 ± 14.6	60.5 ± 0.7	26.8 ± 5.0	-1.3 ± 4	6.5 ± 7	70.9 ± 39.8	–	–	–	inhibition at 100 µM ([2]; 0.1 mM, pH 5.0, FIG. 8, read-out: Maximum inhibition of hemolysis): 61%; IC50 [2, 6]: 100 to 1000 µM; inhibition at 10 µM [2, 9]: 13.2%; inhibition at 1 µM ([2]; read-out: hemolysis % ↓ OD): -5.1%; % inhibition, POST control (low pH BHA; log conc -3 (M)): 54.5%; Hb control % ↓ OD (hemoglobin; log conc -5 (M)): 11%; Hb control % ↓ OD (hemoglobin; log conc -6 (M)): 3%; IC50 (C22 virus in MDCK2 cells [4]; [10]): 10 to 100 µM
COC(=O)C1C=CCC2C(=O)C=CC(=O)C12 (stereo not drawn) [Compound 97, methyl 5,8-dioxo-1,4,4A,5,8,8A-hexahydro-1-naphthalenecarboxylate]	apparently inhibited hemolytic activity	55.0 ± 13.3	-3.1 ± 7.9	32.9 ± 30.9	95.9 ± 8	102 ± 5.8	94.6	37.6 ± 4.9	-4.7 ± 9.4	92.6 ± 12.7	–	–	–	–	IC50 [2, 6]: 100 µM; inhibition at 10 µM [2, 9]: 23.7%; inhibition at 1 µM ([2]; read-out: hemolysis % ↓ OD): 6.6%; Hb control % ↓ OD (hemoglobin; log conc -5 (M)): 31%; Hb control % ↓ OD (hemoglobin; log conc -6 (M)): 13.0%; IC50 (C22 virus in MDCK2 cells [4]; [10]): 1 to 10 µM
Cc1c(O)ccc(O)c1C [Compound 99, 2,3-dimethylhydroquinone]	did not	27.8	-4.2 ± 9	-10.1 ± 10	99.4 ± 0.4	28.7	–	–	26.2 ± 8.6	35.9 ± 5.2	114 ± 12	> 1000	> 1000	> 10	syncytia, Table 6 [5]: toxic; IC50 (C22 virus in MDCK2 cells [4]; [13]): > 10 µM
Oc1ccc(O)c2c1C1CCC2C1 [Compound 111, 3',6'-dihydroxybenzonorbornane]	–	64.9 ± 0.5	1 ± 5.8	-1.6 ± 0.8	41 ± 17	36.7 ± 0.6	-6.9 ± 9.3	40.4 ± 1.3	21.7 ± 4.9	57.4 ± 25.2	102 ± 10.6	–	100 to 1000	10	activity rank among compounds tested [1]: most active; syncytia, Table 6 [5]: morph; % inhibition, POST control (low pH BHA; log conc -3 (M)): 13.3%; % inhibition, POST control (low pH BHA; log conc -4 (M)): 9.5%; IC50 (C22 virus in MDCK2 cells [4]; [13]): 10 µM
O=C1C=CC(=O)c2cc3ccccc3cc21 [Compound 114, 1,4-anthraquinone]	–	–	-4.3 ± 3.3	53.7 ± 2.1	102	–	–	–	0.2 ± 0.2	92.3 ± 12.7	–	–	–	–	syncytia, Table 6 [5]: toxic; infectivity in Table 6 (C22 virus in MDCK2 cells [3]; Table 6): toxic; INF, words (Table 7) (C22 virus in MDCK2 cells [3]; Table 7): toxic
Cc1cc(O)c(C)cc1O [Compound 116, 2,5-dimethylhydroquinone]	did not	44.0	3.6 ± 4.5	-9.4 ± 5	-23.6 ± 5	17.3	7.7	31.6	18.8 ± 1.7	42.8 ± 4.7	78.1 ± 10	> 1000	> 1000	10 to 100	SPA activity [1]: inactive in the SPA; syncytia, Table 6 [5]: morph; infectivity inhibition (C22 virus in MDCK2 cells [3]): inhibited infectivity
CC(C)(C)c1cc(O)ccc1O [Compound 117, tert-butylhydroquinone]	apparently inhibited hemolytic activity	17.8	-8.4 ± 7.6	-13.7 ± 2.8	-26.1 ± 3.3	116	31.6 ± 6.9	9.9 ± 2.8	7.5 ± 0.1	22.2 ± 13.2	53.7 ± 26.4	100	100	10 to 100	activity rank among compounds tested [1]: most active; inhibition of syncytia formation ([5]; 1 μM): Significant inhibition was not observed; inhibition of syncytia formation ([5]; 10 μM): completely abolished the ability of the virus to induce syncytia; inhibition at 10 µM [2, 9]: 13.9%; % inhibition, POST control (low pH BHA; log conc -3 (M)): -3.4%; % inhibition, POST control (low pH BHA; log conc -4 (M)): 2.9%; % inhibition, POST control (low pH BHA; log conc -5 (M)): 9.1%; % inhibition, POST control (low pH BHA; log conc -6 (M)): 4.7%; Hb control % ↓ OD (hemoglobin; log conc -5 (M)): 7.9%
O=C1C=CC(=O)c2c(O)cccc21 [Compound 119, 5-hydroxy-1,4-naphthoquinone]	–	–	–	–	97.8	–	–	–	–	–	–	–	–	–	inhibition in the SPA assay ([1]; 1 μM-1 mM): showed no inhibition; activity note in Table 7 ([1]; Table 7): inactive
Cl.Nc1ccc(O)c2ccccc12 [Compound 121, 4-amino-1-naphthol hydrochloride]	–	–	–	–	100	–	–	–	–	–	–	–	–	–	IC50 ([2]; 0.25 h, read-out: IC50 hemolysis): ≥ 1000 µM; IC50 ([2]; read-out: HEM, negative log of IC50 (converted)): ≥ 1000 µM; inhibition at 10 µM ([2]; read-out: hemolysis % ↓ OD): -4.6 ± 0.1%; inhibition at 100 µM ([2]; read-out: hemolysis % ↓ OD): 31.5 ± 7.8%; inhibition at 1000 µM ([2]; read-out: hemolysis % ↓ OD): 116%; Hb control % ↓ OD (hemoglobin): 68.0%; INF, words (Table 7) (C22 virus in MDCK2 cells [3]): toxic; infectivity in Table 6 (C22 virus in MDCK2 cells [3]): toxic
Oc1ccc2ccccc2c1O [Compound 124, 1,2-dihydroxynaphthalene]	–	–	–	–	80.5	–	–	–	–	–	–	–	–	–	infectivity in Table 6 (C22 virus in MDCK2 cells [3]; Table 6): toxic; INF, words (Table 7) (C22 virus in MDCK2 cells [3]; Table 7): toxic
Oc1cccc2c(O)cccc12 [Compound 126, 1,5-naphthalenediol]	apparently inhibited hemolytic activity	54.4 ± 3.7	-6.9 ± 4	-9.2 ± 0.6	-7.6 ± 7.3	101 ± 7.6	–	–	3.8 ± 5.5	7.4 ± 1.8	35.6 ± 0.6	1000	1000	> 100	IC50 (C22 virus in MDCK2 cells [4]; [13]): > 100 µM
O=C1C=C(Br)C(=O)c2ccccc21 [Compound 135, 2-bromo-1,4-naphthoquinone]	did not	75.2	–	–	–	80.3	–	–	–	–	–	> 1000	–	–	–
